Laboratory results: US20220324835A1 (Nurix Therapeutics, Inc., priority 2018, published 2022)
Read-outs that look alike come from different tables or passages of the source.

Assays:
T-cell = assay: CD25 cell surface staining on T-cells co-stimulated with anti-CD3 and anti-CD28 antibody (Biological Example 2); format: cell-based, human; conditions: Homo sapiens, T-cell, primary human total T-cells
How it was run: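 No assay protocol given; T-cells stimulated with anti-CD3 alone or anti-CD3 plus anti-CD28, with or without Cbl-b inhibitor. Activation read as IL-2 secretion or CD25 surface staining, expressed as fold over baseline from uninhibited cells […].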

Cbl-b [1] = target: T1, Cbl-b (Homo sapiens, UniProt Q13191); assay: Cbl-b activity assay (Cbl-b inhibition assay), TR-FRET of Cbl-b interaction with UbcH5B-Ub; format: biochemical
T1 sequence (Q13191 36-427): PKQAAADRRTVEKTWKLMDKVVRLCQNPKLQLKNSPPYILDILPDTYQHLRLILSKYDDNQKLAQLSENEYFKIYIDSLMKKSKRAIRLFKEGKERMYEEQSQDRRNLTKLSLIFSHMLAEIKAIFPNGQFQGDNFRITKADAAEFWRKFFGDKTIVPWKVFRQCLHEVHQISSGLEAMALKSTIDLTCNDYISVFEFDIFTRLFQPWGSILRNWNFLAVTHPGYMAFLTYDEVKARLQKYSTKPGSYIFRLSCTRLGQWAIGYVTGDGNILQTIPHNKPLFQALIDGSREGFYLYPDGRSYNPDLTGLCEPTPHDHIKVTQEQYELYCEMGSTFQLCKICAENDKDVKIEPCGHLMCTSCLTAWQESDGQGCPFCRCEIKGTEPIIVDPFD
How it was run: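 TR-FRET readout of Cbl-b binding to Bodipy-fluorescein N-terminally labeled Ub conjugated to UbcH5B C85K, measured with compound present. After compound incubation, 60 nM Src kinase with 1 mM ATP and 5 mM MgCl2 (final) was added for 1.5 h, then a further 1 h incubation; asterisked values used 50 mM NaCl buffer and 30 nM Src.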

Cbl-b (residues 36-427) = Cbl-b (residues 36-427) (Homo sapiens, UniProt Q13191); assay: Cbl-b binding assay (SPR, Biacore T200); conditions: 20° C., 1:1 binding model
Sequence of Cbl-b (residues 36-427) (Q13191 36-427): as above
How it was run: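 Affinities derived from global 1:1 steady-state or kinetic fits of double-referenced, solvent-corrected SPR data, 20 °C, NeutrAvidin-capture chip. Compound series (top 100 or 50 μM, 8–10 points) injected 50 s, 90–180 s dissociation. Asterisked values used 50 mM instead of 100 mM NaCl and 30 nM Src kinase.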

Cbl-b [2] = target: T1, Cbl-b; assay: Cbl-b inhibition assay (Cbl-b activity assay, FRET, Biological Example 1; 100 mM NaCl, 60 nM Src kinase); format: biochemical; conditions: upper bound stated in text lists; read-out: IC50 values in the Cbl-b inhibition assay of Biological Example 1
How it was run: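 Binding-based Cbl-b activity assay. Src-phosphorylated, N-terminally biotin-Avi-tagged Cbl-b recruits labelled UbcH5B-Ub, and proximity to streptavidin-terbium yields FRET.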

[3] = fold change over baseline, 0.3 μM Cbl-b inhibitor, read-out: CD25 staining Anti-CD3/Anti-CD28 stimulation
[4] = fold change over baseline, 1 μM Cbl-b inhibitor, read-out: CD25 staining Anti-CD3/Anti-CD28 stimulation
[5] = fold change over baseline, 4 μM Cbl-b inhibitor, read-out: CD25 staining Anti-CD3/Anti-CD28 stimulation
[6] = assay buffer with 100 mM NaCl, 60 nM Src kinase, read-out: Cbl-b activity IC50
[7] = * assay buffer containing 50 mM NaCl instead of 100 mM NaCl and 30 nM Src kinase instead of 60 nM, read-out: Cbl-b activity IC50 (μM)*
[8] = 0.3 μM compound, baseline = anti-CD3/anti-CD28 stimulated cells without inhibitor, read-out: CD25 staining, Anti-CD3/Anti-CD28 stimulation, fold change over baseline
[9] = 1 μM compound, baseline = anti-CD3/anti-CD28 stimulated cells without inhibitor, read-out: CD25 staining, Anti-CD3/Anti-CD28 stimulation, fold change over baseline
[10] = 4 μM compound, baseline = anti-CD3/anti-CD28 stimulated cells without inhibitor, read-out: CD25 staining, Anti-CD3/Anti-CD28 stimulation, fold change over baseline

SMILES | fold induction at 0.3 µM (T-cell; [3]) | fold induction at 1 µM (T-cell; [4]) | fold induction at 4 µM (T-cell; [5]) | IC50 (Cbl-b [1]; [6]) [µM] | Kd (Cbl-b (residues 36-427)) [nM] | IC50 (Cbl-b [2]) [nM] | IC50 (Cbl-b [1]; [7]) [µM] | fold induction at 0.3 µM (T-cell; [8]) | fold induction at 1 µM (T-cell; [9]) | fold induction at 4 µM (T-cell; [10])
Cn1cnnc1C(F)(F)C(C)(F)c1cccc(N2Cc3c(cccc3C(F)(F)F)C2=O)c1 (racemic) [Compound 296, 2-(3-(1,1,2-trifluoro-1-(4-methyl-4H-1,2,4-triazol-3-yl)propan-2-yl)phenyl)-4-(trifluoromethyl)isoindolin-1-one] | 1.01 to 1.3 | 1.01 to 1.3 | 1.01 to 1.3 | 0.301 to 1 | 3000 to 10000 | ≤ 1000 |  |  |  | 
Cn1cnnc1CC(C)(F)c1cccc(N2Cc3c(cccc3C(F)(F)F)C2=O)c1 (racemic) [Compound 298, 2-(3-(2-fluoro-1-(4-methyl-4H-1,2,4-triazol-3-yl)propan-2-yl)phenyl)-4-(trifluoromethyl)isoindolin-1-one] | < 1 | 1.01 to 1.3 | 1.01 to 1.3 | 0.1 to 0.3 | < 100 | ≤ 500 |  |  |  | 
C[C@H](Cc1nncn1C)c1cc(N[C@@H]2CCOC2)nc(N2Cc3c(cccc3C(F)(F)F)C2=O)c1 (stereo in doubt) [Compound 362, 2-(4-((R)-1-(4-methyl-4H-1,2,4-triazol-3-yl)propan-2-yl)-6-((S)-THF-3-ylamino)pyridin-2-yl)-4-(trifluoromethyl)isoindolin-1-one] | < 1 | 1.01 to 1.3 | 1.01 to 1.3 | 0.1 to 0.3 | 100 to 300 | ≤ 300 |  |  |  | 
Cc1cc(C(=O)Nc2cccc([C@H](C)Sc3nncn3C)c2)nc2ccccc12 [Compound 30, (S)-4-Methyl-N-(3-(1-((4-methyl-4H-1,2,4-triazol-3-yl)thio)ethyl)phenyl)quinoline-2-carboxamide] | 1.01 to 1.3 | 1.01 to 1.3 | 1.01 to 1.3 | 0.301 to 1 | 1000 to 3000 | ≤ 500 | 0.301 to 1 |  |  | 
C[C@H](Sc1nncn1C)c1cccc(NC(=O)c2cc(C(F)(F)F)ccn2)c1 [Compound 32, (S)-N-(3-(1-((4-Methyl-4H-1,2,4-triazol-3-yl)thio)ethyl)phenyl)-4-(trifluoromethyl)picolinamide] | 1.01 to 1.3 | 1.01 to 1.3 | 1.01 to 1.3 | 3 to 10 | 1000 to 3000 | ≤ 10000 | 1 to 3 |  |  | 
CC(C)c1cccc(C(=O)Nc2cccc([C@H](C)Sc3nncn3C)c2)n1 [Compound 33, (S)-6-Isopropyl-N-(3-(1-((4-methyl-4H-1,2,4-triazol-3-yl)thio)ethyl)phenyl)picolinamide] | 1.01 to 1.3 | 1.01 to 1.3 | 1.01 to 1.3 | 0.1 to 0.3 | 301 to 1000 | ≤ 500 | 0.301 to 1 |  |  | 
Cc1ccc(C(=O)Nc2cccc([C@H](C)Sc3nncn3C)c2)nc1C [Compound 35, (S)-5,6-Dimethyl-N-(3-(1-((4-methyl-4H-1,2,4-triazol-3-yl)thio)ethyl)phenyl)picolinamide] | < 1 | 1.01 to 1.3 | 1.31 to 1.5 | 0.301 to 1 | 3000 to 10000 | ≤ 1000 | 0.301 to 1 |  |  | 
Cc1cccc2nc(C(=O)Nc3cccc([C@H](C)Sc4nncn4C)c3)ccc12 [Compound 48, 5-Methyl-N-[3-[(1S)-1-[(4-methyl-4H-1,2,4-triazol-3-yl)sulfanyl]ethyl]phenyl]quinoline-2-carboxamide] | 1.01 to 1.3 | 1.01 to 1.3 | 1.01 to 1.3 | 0.301 to 1 | 1000 to 3000 | ≤ 500 |  |  |  | 
C[C@H](Sc1nncn1C)c1cccc(NC(=O)c2ccc(Cl)c(C(F)(F)F)n2)c1 [Compound 51, (S)-5-chloro-N-(3-(1-((4-methyl-4H-1,2,4-triazol-3-yl)thio)ethyl)phenyl)-6-(trifluoromethyl)picolinamide] | 1.01 to 1.3 | 1.01 to 1.3 | 1.01 to 1.3 | 0.1 to 0.3 | 301 to 1000 | ≤ 500 |  |  |  | 
C[C@H](Sc1nncn1C)c1cccc(NC(=O)c2cc(C(C)(C)O)c(Cl)cn2)c1 [Compound 55, (S)-5-chloro-4-(2-hydroxypropan-2-yl)-N-(3-(1-((4-methyl-4H-1,2,4-triazol-3-yl)thio)ethyl)phenyl)picolinamide] | 1.01 to 1.3 | 1.01 to 1.3 | 1.01 to 1.3 | 0.301 to 1 | 1000 to 3000 | ≤ 1000 |  |  |  | 
C[C@H](Cc1nncn1C)c1cccc(NC(=O)c2cccc(CCO)n2)c1 [Compound 202, 6-(2-hydroxyethyl)-N-[3-[(2R)-1-(4-methyl-4H-1,2,4-triazol-3-yl)propan-2-yl]phenyl]pyridine-2-carboxamide] | 1.01 to 1.3 | 1.01 to 1.3 | 1.31 to 1.5 | 0.301 to 1 |  | ≤ 1000 |  |  |  | 
Cn1cnnc1C(F)(F)[C@](C)(F)c1cccc(N2Cc3c(cccc3C(F)(F)F)C2=O)c1 [Compound 296a, (R)-2-(3-(1,1,2-trifluoro-1-(4-methyl-4H-1,2,4-triazol-3-yl)propan-2-yl)phenyl)-4-(trifluoromethyl)isoindolin-1-one] | 1.01 to 1.3 | 1.01 to 1.3 | 1.01 to 1.3 | 0.1 to 0.3 |  | ≤ 500 |  |  |  | 
Cn1cnnc1[C@@H]1C[C@@H]1c1cccc(N2Cc3c(ccnc3C(F)(F)F)C2=O)c1 [Compound 369, 2-{3-[(1S,2R)-2-(4-methyl-4H-1,2,4-triazol-3-yl)cyclopropyl]phenyl}-4-(trifluoromethyl)-1H,2H,3H-pyrrolo[3,4-c]pyridin-1-one] |  |  |  | 0.301 to 1 |  |  |  | 1.01 to 1.3 | 1.01 to 1.3 | 1.01 to 1.3
Cc1cc2c(c(C3CC3)n1)CN(c1cccc([C@H](C)Cc3nncn3C)c1)C2=O [Compound 372, 4-cyclopropyl-6-methyl-2-{3-[(2R)-1-(4-methyl-4H-1,2,4-triazol-3-yl)propan-2-yl]phenyl}-1H,2H,3H-pyrrolo[3,4-c]pyridin-1-one] |  |  |  | 0.301 to 1 |  |  |  | 1.01 to 1.3 | 1.01 to 1.3 | 1.01 to 1.3
CNCc1ccc(C(=O)Nc2cccc([C@H](C)Cc3nncn3C)c2)nc1C1CC1 [Compound 376, (R)-6-cyclopropyl-N-(3-(1-(4-methyl-4H-1,2,4-triazol-3-yl)propan-2-yl)phenyl)-5-((methylamino)methyl)picolinamide] |  |  |  | 0.1 to 0.3 |  | ≤ 300 |  | 1.01 to 1.3 | 1.31 to 1.5 | 1.51 to 1.75
